Data on 15 compounds can be found in ChEMBL document CHEMBL3243983, “2-(Alkoxyaryl)-2-imidazoline monoamine oxidase inhibitors with antidepressant activity” (J Med Chem, 1978).

The test system of one assay is Mus musculus. Kind of assay: Antidepressant activity in mouse assessed as antagonism of tetrabenazine-induced symptoms at 10 mg/kg, ip administered 30 mins before 35 mg/kg, ip tetrabenazine challenge measured after 30 mins by arousal test. In kind it is functional.
A short description of assay [1]: Inhibition of MAO in mouse brain using serotonin as substrate. In kind it is tissue-based.
For assay [2], the species on record is Rattus norvegicus. Kind of assay: Inhibition of MAO in rat brain using serotonin as substrate preincubated for 15 mins. In kind it is tissue-based.
Assay [3] is filed under the species Rattus norvegicus. Kind of assay: Irreversible inhibition of MAO in rat brain using serotonin as substrate preincubated for 15 mins measured after dialysis. Type of assay: tissue-based.
The species named for assay [4] is Rattus norvegicus. As to the kind of experiment: Irreversible inhibition of MAO in rat brain using serotonin as substrate measured after dilution. In kind it is tissue-based.

Each structure is given as a SMILES string. Calls of active or inactive are those of the source. The calls are words filed in the database; no cut-off is given here.

In general, IC50 refers to the midpoint of a concentration-inhibition curve. On to `CCCCOc1ccc2c(C3=NCCN3)cccc2c1`, for which the “inhibition (INH)” value in the assay with Mus musculus worked out at 60%. In assay [1], the IC50 worked out at 32 nM.

`Oc1ccc(C2=NCCN2)c2ccccc12`: in the assay on Mus musculus, the “inhibition (INH)” value is on record as under 30%. Moreover, the IC50 in assay [1] stood at 12000 nM.

As usually defined, the inhibition is how much of the control response was suppressed. As to `CCCCOc1ccc(C2=NCCN2)c2ccccc12`, the “inhibition (INH)” value in the assay with Mus musculus turned out to be 60%. Also, the half-maximal inhibitory concentration (IC50) in assay [1] stood at 58 nM. Moreover, the inhibition in the assay filed under Rattus norvegicus [2] came out at 96%; in the assay filed under Rattus norvegicus [3], 77%. Further, the inhibition result in the assay listed under Rattus norvegicus [4] is “Active”.

For `CCOc1ccc(C2=NCCN2)c2ccccc12`, the “inhibition (INH)” value in the assay on Mus musculus amounted to 50%. For the same compound, the half-inhibitory concentration (IC50) in assay [1] stood at 54 nM.

With `CCCCCOc1ccc(C2=NCCN2)c2ccccc12`, in the assay with Mus musculus, the “inhibition (INH)” value is listed as 50%. This compound also registered an IC50 in assay [1] of 91 nM.

In the case of `CCCCOc1c(CCC)cc(C2=NCCN2)c2ccccc12`, the “inhibition (INH)” value in the assay with Mus musculus is listed as under 30%. In assay [1], this compound gave an IC50 of 4900 nM.

As to `C#CCN(C)Cc1ccccc1` [PARGYLINE], the “inhibition (INH)” value in the assay on Mus musculus came out at 60%. Moreover, the half-inhibitory concentration (IC50) in assay [1] stood at 1200 nM.

Take `c1ccc2c(c1)cc(C1=NCCN1)c1ccccc12`: in the assay with Mus musculus, the “inhibition (INH)” value is under 30%. The concentration for half-maximal inhibition (IC50) in assay [1] came out at 35000 nM.

In the case of `CCCCOc1ccc(C2=NCCCN2)c2ccccc12`, in the assay with Mus musculus, the “inhibition (INH)” value stood at 30%. The compound also yielded an IC50 in assay [1] of 50 nM.

For `CCCCOc1ccc(C2=NC(C)(C)CN2)c2ccccc12.Cl`, the “inhibition (INH)” value in the assay on Mus musculus is recorded as under 30%. Further, in assay [1], the half-maximal inhibitory concentration (IC50) is 6000 nM.

For the compound `CCCOc1ccc(C2=NCCN2)c2ccccc12`, the “inhibition (INH)” value in the assay on Mus musculus is given as 60%. This compound displayed a 50% inhibitory concentration (IC50) in assay [1] of 91 nM.

Take `CCCCCCOc1ccc(C2=NCCN2)c2ccccc12`: in the assay on Mus musculus, the “inhibition (INH)” value is 40%. The compound also returned a half-inhibitory concentration (IC50) in assay [1] of 350 nM.

Take `CCCCCCOc1ccc2c(C3=NCCN3)cccc2c1`: the “inhibition (INH)” value with Mus musculus is given as under 30%. This compound yielded an IC50 in assay [1] of 3400 nM.

`CCCCOc1ccc(C2=NC(C)CN2)c2ccccc12` (stereo unspecified): the “inhibition (INH)” value in the assay with Mus musculus was under 60%. Also, the 50% inhibitory concentration (IC50) in assay [1] was 60 nM.

Consider `CCCCCCCOc1ccc(C2=NCCN2)c2ccccc12`, for which the “inhibition (INH)” value in the assay with Mus musculus was under 30%. The compound also came in with a 50% inhibitory concentration (IC50) in assay [1] of 400 nM. Moreover, the values for the inhibition in the assay filed under Rattus norvegicus [2] and in the assay listed under Rattus norvegicus [3] were 91% and 93%, respectively. Moreover, the inhibition result in the assay listed under Rattus norvegicus [4] was “Active”.
